≈ marks a conversion by molar mass, not a printed value.
Assays:
[1] = system: Escherichia coli BW25113
Description: (§1) MIC (Minimum Inhibitory Concentration) was determined according to CLSI guidelines, as discussed elsewhere. Briefly, the strains were streaked on LB-Agar plates with Ampicillin (100 µg/mL) from glycerol stocks maintained at −80 °C and allowed to grow overnight at 37 °C. A single colony of each strain was picked from the fresh plates and grown in MHB No.2 Control Cations Hi-Media (MHB) with Ampicillin (100 µg/mL). Phe-Arg β-Naphthylamide (PAβN; Sigma-Aldrich, Catalog no.# P4157) was used at a final concentration of 20 µg/mL, wherever mentioned. The AcrAB and OqxAB expression are under a […] promoter, and AcrB and OqxB were induced with 100 μM of IPTG (Amresco, Catalog no.# 0487-10 G). Antibiotics and their two-fold dilution series were prepared in DMSO. Three microliters compound from each of the dilutions and 150 μL (3–7 × 10^5 CFU/mL) of bacterial culture were added to a flat bottom 96 well microtiter plates to obtain final antibiotic concentrations ranging from 0.03 µg/mL to 160 µg/mL. The plates were packed in gas permeable polythene bags and incubated at 37 °C for 16–18 h. MIC was determined as the concentration at which no bacterial growth was observed as ascertained by absorbance (A600nm) with a spectrophotometer. In the case of the wild-type strain and clinical isolates, 90% growth inhibition was used for MIC determination. […] All experiments were performed in triplicates and the data reported in this work is representative of the same. OqxB, the RND efflux pump component, is associated with increased resistance in clinical isolates of E. coli and K. pneumoniae. To understand the efflux liability for fluoroquinolones in E. coli in the clinic, 84 recent clinical isolates were evaluated by MIC experiments (at St. John’s Medical Hospital, Bengaluru, India). […] To delineate the cause of the resistance, the Quinolone-resistance determining regions (QRDR) of gyrA and parC were sequenced. […] Therefore, complementation experiments in “sensitive strains” were undertaken to further probe the role of OqxB in efflux towards fluoroquinolone resistance.

[2] = system: Escherichia coli SEC030
Description: as §1

[3] = system: Escherichia coli SEC037
Description: as §1

[4] = system: Escherichia coli SEC086
Description: as §1

[5] = system: T1, Escherichia coli SEC010; set-up: CLSI broth microdilution MIC, 96-well, absorbance at 600 nm
T1 construct: SEC010
Description: as §1

[6] = system: T2, Escherichia coli SEC032; set-up: CLSI broth microdilution MIC, 96-well, absorbance at 600 nm
T2 construct: SEC032
Description: as §1

[7] = system: T3, Escherichia coli SEC045; set-up: CLSI broth microdilution MIC, 96-well, absorbance at 600 nm
T3 construct: SEC045
Description: as §1

[8] = system: T4, Escherichia coli SEC052; set-up: CLSI broth microdilution MIC, 96-well, absorbance at 600 nm
T4 construct: SEC052
Description: as §1

[9] = system: T5, Escherichia coli SEC056; set-up: CLSI broth microdilution MIC, 96-well, absorbance at 600 nm
T5 construct: SEC056
Description: as §1

[10] = system: T6, Escherichia coli SEC063; set-up: CLSI broth microdilution MIC, 96-well, absorbance at 600 nm
T6 construct: SEC063
Description: as §1

[11] = system: T7, Escherichia coli SEC030; experiment: microbe, parasite or virus in culture; set-up: species or system Escherichia coli clinical isolates; CLSI broth microdilution MIC on E. coli clinical isolates, A600 read-out, 90% growth inhibition; conditions: SEC030, read-out: MIC VALUES / Ampicillin
T7 construct: SEC030
Description: as §1

[12] = system: T2, Escherichia coli SEC032; experiment: microbe, parasite or virus in culture; set-up: species or system Escherichia coli clinical isolates; CLSI broth microdilution MIC on E. coli clinical isolates, A600 read-out, 90% growth inhibition; conditions: SEC032, read-out: MIC VALUES / Ampicillin
Description: as §1

[13] = system: T8, Escherichia coli SEC037; experiment: microbe, parasite or virus in culture; set-up: species or system Escherichia coli clinical isolates; CLSI broth microdilution MIC on E. coli clinical isolates, A600 read-out, 90% growth inhibition; conditions: SEC037, read-out: MIC VALUES / Ampicillin
T8 construct: SEC037
Description: as §1

[14] = system: T3, Escherichia coli SEC045; experiment: microbe, parasite or virus in culture; set-up: species or system Escherichia coli clinical isolates; CLSI broth microdilution MIC on E. coli clinical isolates, A600 read-out, 90% growth inhibition; conditions: SEC045, read-out: MIC VALUES / Ampicillin
Description: as §1

[15] = system: T9, Escherichia coli SEC046; experiment: microbe, parasite or virus in culture; set-up: species or system Escherichia coli clinical isolates; CLSI broth microdilution MIC on E. coli clinical isolates, A600 read-out, 90% growth inhibition; conditions: SEC046, read-out: MIC VALUES / Ampicillin
T9 construct: SEC046
Description: as §1

[16] = system: T10, Escherichia coli SEC050; experiment: microbe, parasite or virus in culture; set-up: species or system Escherichia coli clinical isolates; CLSI broth microdilution MIC on E. coli clinical isolates, A600 read-out, 90% growth inhibition; conditions: SEC050, read-out: MIC VALUES / Ampicillin
T10 construct: SEC050
Description: as §1

[17] = system: T11, Escherichia coli SEC086; experiment: microbe, parasite or virus in culture; set-up: species or system Escherichia coli clinical isolates; CLSI broth microdilution MIC on E. coli clinical isolates, A600 read-out, 90% growth inhibition; conditions: SEC086, read-out: MIC VALUES / Ampicillin
T11 construct: SEC086
Description: as §1

| Compound | Linezolid MIC without PAβN [1] [µg/mL] | Linezolid MIC without PAβN [2] [µg/mL] | Linezolid MIC without PAβN [3] [µg/mL] | Linezolid MIC without PAβN [4] [µg/mL] | Linezolid MIC without PAβN [5] [µg/mL] | Linezolid MIC without PAβN [6] [µg/mL] | Linezolid MIC without PAβN [7] [µg/mL] | Linezolid MIC without PAβN [8] [µg/mL] | Linezolid MIC without PAβN [9] [µg/mL] | Linezolid MIC without PAβN [10] [µg/mL] | MIC [11] [µg/mL] | MIC [12] [µg/mL] | MIC [13] [µg/mL] | MIC [14] [µg/mL] | MIC [15] [µg/mL] | MIC [16] [µg/mL] | MIC [17] [µg/mL] |
| --- | --- | --- | --- | --- | --- | --- | --- | --- | --- | --- | --- | --- | --- | --- | --- | --- | --- |
| CC(=O)NC[C@H]1CN(c2ccc(N3CCOCC3)c(F)c2)C(=O)O1 [Linezolid] | 200 | 400 | 200 | 200 | 400 | 400 | 200 | 200 | 200 | 400 |  |  |  |  |  |  |  |
| CC1(C)S[C@@H]2[C@H](NC(=O)[C@H](N)c3ccccc3)C(=O)N2[C@H]1C(=O)O [ampicillin] |  |  |  |  |  |  |  |  |  |  | 2 (≈ 5.72 µM) | 8 (≈ 22.9 µM) | 2 (≈ 5.72 µM) | 4 (≈ 11.4 µM) | 8 (≈ 22.9 µM) | 8 (≈ 22.9 µM) | 4 (≈ 11.4 µM) |
